Experimental data: article PMC9653258, “NDUFS3 knockout cancer cells and molecular docking reveal specificity and mode of action of anti-cancer respiratory complex I inhibitors” (Open Biology, 2022)
Where two headings read alike, the source gives them in different places.

Key:
[1] = tested on: HCT116 cells (NDUFS3^+/+); assay: Cell proliferation, Incucyte live-imaging (confluence); assay type: cell-based, human
Procedure: (§1) Cell proliferation and morphology were assessed using the Incucyte Live-imaging System (Sartorius) and proliferation was quantified through time-lapse image acquisition and metrics application.
(§2) Briefly, 2.5 × 10^3 SKOV3/well, 2 × 10^3 HCT116/well and 1 × 10^3 B16-F10/well were seeded in 96-well plates in high-glucose DMEM and incubated overnight to allow cells attachment. For specificity assays, NDUFS3 wild-type and knockout cells were seeded simultaneously, and the same confluence mask was applied for subsequent analysis. […] Cell growth was evaluated by Incucyte system phase contrast software (confluence metrics), which provides an occupied area average (% of confluence) per image/per well. For data in electronic supplementary material, figures S1 and S2, the analysis was performed using % of confluence metric per scan normalized on treatment starting point (time 0). For data in figures 1 and 2, the percentage of cell confluence normalized on time 0 for each inhibitor's treatment was subsequently normalized to untreated control. At least three replicate experiments were performed for each treatment condition.

SKOV3 cells (NDUFS3^+/+) = assay: as above; assay type: cell-based, human
Procedure: as §1, §2

[2] = tested on: B16-F10 cells (NDUFS3^+/+); assay: as above; assay type: cell-based, murine
Procedure: as §1, §2

[3] = tested on: NDUFS3^−/− cells (SKOV3^−/−, HCT116^−/−, B16-F10^−/−); assay: Proliferation of CI-deficient cells, Incucyte (all three models); assay type: cell-based, human, murine; details: tested concentrations (up to 1 µM)
Description: (§3) Human ovarian cancer cell line SKOV3 and murine melanoma cell line B16-F10 were purchased from ATCC (#HTB-77; #CRL-6475, Manassas, VA, USA). Human colorectal cancer cell line HCT116 was authenticated using […]dentifiler kit (Applied Biosystem #4322288) and its STR profile corresponded to the putative background. Mitochondrial DNA (mtDNA) was sequenced by Sanger sequencing as previously described, to ensure wild-type genotype. The results are available upon request. NDUFS3 knockout cells, referred as SKOV3^−/−, HCT116^−/− and B16-F10^−/−, were generated by genome editing as previously reported. Briefly, CRISPR/Cas9 system was used to introduce a frameshift mutation in NDUFS3 gene in SKOV3 human cell line and Ndufs3 gene in B16-F10 murine cell line, using exon 2 targeting guide […] and exon 3 targeting guide […], respectively. […]
as §1
(§4) Briefly, 2.5 × 10^3 SKOV3/well, 2 × 10^3 HCT116/well and 1 × 10^3 B16-F10/well were seeded in 96-well plates in high-glucose DMEM and incubated overnight to allow cells attachment. […] Cell growth was evaluated by Incucyte system phase contrast software (confluence metrics), which provides an occupied area average (% of confluence) per image/per well. […]

[4] = tested on: NDUFS3^+/+ and NDUFS3^−/− SKOV3, HCT116 and B16-F10 cells; assay: Specificity assay: proliferation of NDUFS3^+/+ versus NDUFS3^−/− cells, Incucyte; assay type: cell-based, human, murine; details: EVP 4593 100 nM (SKOV3, HCT116), 200 nM (B16-F10); BAY 87-2243 1 µM, 20 µM (B16-F10); IACS-010759 1 µM, 5 µM (B16-F10); 72 h
Procedure: as §1, §2

[5] = tested on: SKOV3, HCT116 and B16-F10 cells; assay: Apoptotic cell death, Incucyte Caspase-3/7 green dye (all cell models); assay type: cell-based, human, murine; details: 72 h
Procedure: (§7) Cells (SKOV3, HCT116 and B16-F10) were seeded in a 96-wells plate in high glucose DMEM, as described above. Drugs were added after 24 h, in presence of 5 µM Incucyte Caspase-3/7 green dye following the manufacturer's protocol. Then, the plate was placed in Incucyte for 72 h and images (4/well) were captured at 10× magnification with 2 h intervals, both in phase contrast and fluorescent green channel. For each cell line, staurosporine (100 nM, Sigma-Aldrich #S4400) treatment was performed as a positive control. For each experimental condition, the masks for fluorescent objects identification were set by the Incucyte integrated analysis software. Total and green positive cells were counted at 10× magnification in three fields of view per condition, and data are expressed as percentage of apoptotic cells [(number of green cells/number of total cells) × 100].

[6] = tested on: mitochondrial respiration of HCT116 cells; assay: Microrespirometry (Seahorse XFe, oxygen consumption rate); assay type: cell-based, human; details: for IC50: Homo sapiens, read-out: IC50 (residual OCR, concentration-response)
Procedure: (§5) Mitochondrial respiration was measured using the protocol described for the Seahorse XFe Cell Mito Stress Test Kit (Agilent #103015-100) following the manufacturer instructions. Briefly, 12 × 10^3 cells/well (SKOV3, HCT116) and 8 × 10^3 (B16-F10) were seeded in 80 µl of DMEM medium into XFe96 cell culture plates and incubated for 48 h (HCT116) and for 24 h (SKOV3, B16-F10) at 37°C and 5% CO2. Complete growth medium was replaced with 180 µl of XF medium (Agilent #103575-100) supplemented with 10 mM glucose, 1 mM sodium pyruvate, 2 mM L-glutamine, at pH 7.4. For temperature and pH equilibration, cells were incubated at 37°C for 30 min. Three oxygen consumption rate (OCR) baseline measurements were followed by injection of either vehicle or different concentrations of CI-inhibitors and subsequent measurements; 1 µM oligomycin, carbonyl cyanide-p-trifluoromethoxyphenylhydrazone (FCCP), 1 µM rotenone and 1 µM antimycin A were sequentially added to each well. FCCP concentrations were previously optimized by titration and were 0.5 µM for SKOV3, 0.75 µM for HCT116 and 1 µM for B16-F10, respectively. At the end of the assay, medium was removed and sulforhodamine B (SRB) assay was performed to determine protein content for normalization. Briefly, plates were incubated with 10% trichloroacetic acid (TCA) for 1 h at 4°C to fix the cells. Five washes in water were carried out. Once the plates were dry, proteins were stained by incubation with 0.4% SRB for 30 min at RT. SRB was solubilized with 10 mM Tris and absorbance at 560 nm was determined using a Victor2 plate reader (Perkin-Elmer). Data (pmol min^−1) were normalized to blank corrected SRB absorbance.

[7] = tested on: mitochondrial respiration of SKOV3 cells; assay: as above; assay type: cell-based, human; details: for IC50: Homo sapiens, read-out: IC50 (residual OCR, concentration-response)
Procedure: as §5

[8] = tested on: mitochondrial respiration of B16-F10 cells; assay: as above; assay type: cell-based, murine; details: for IC50: Mus musculus
Procedure: as §5

[9] = tested on: mitochondrial respiration of SKOV3, HCT116 and B16-F10 cells; assay: Microrespirometry (Seahorse XFe, OCR), stated across cell models; assay type: cell-based, human, murine
Procedure: as §5

[10] = tested on: CI (respiratory complex I) in permeabilized SKOV3, HCT116 and B16-F10 cells; assay: Mitochondrial ATP synthesis rate, CI-driven, digitonin-permeabilized cells (luciferin/luciferase); assay type: cell-based, human, murine; details: optimized concentrations; all the investigated cell models
Procedure: The rate of mitochondrial ATP synthesis was measured in digitonin-permeabilized CI competent cells by using a luciferin/luciferase assay as previously described with minor modifications [47]. Chemiluminescence was determined as a function of time with a luminometer (Sirius L Tube, Titertek-Berthold, Pforzheim, Germany). After trypsinization, cells (10 × 10^6 ml^−1) were suspended in a buffer containing 150 mM KCl, 25 mM Tris–HCl, 2 mM EDTA (ethylenediaminetetraacetic acid), 0.1% bovine serum albumin, 10 mM potassium phosphate, 0.1 mM MgCl2, pH 7.4, kept at room temperature for 15 min, then incubated with 50 µg ml^−1 digitonin until 90–100% of cells were positive to Trypan Blue staining. Aliquots of 3 × 10^5 permeabilized cells were incubated in the same buffer in the presence of the adenylate kinase inhibitor P1,P5-di(adenosine-5′) pentaphosphate (0.1 mM, Sigma-Aldrich #A2754) and 10 µl of the luciferin/luciferase assay reagent (Sigma-Aldrich #FLAAM-5VL). Then, ATP synthesis rate was determined after the sequential addition of the following substrates and inhibitors. […] Then, CI inhibitors were added at the optimized concentrations that completely suppress maximal respiration previously determined by titration with Seahorse. […]

[11] = tested on: HCT116^−/− cells (NDUFS3 knockout); assay: Proliferation of CI-deficient cells, Incucyte; assay type: cell-based, human
Description: (§6) Human ovarian cancer cell line SKOV3 and murine melanoma cell line B16-F10 were purchased from ATCC (#HTB-77; #CRL-6475, Manassas, VA, USA). Human colorectal cancer cell line HCT116 was authenticated using […]dentifiler kit (Applied Biosystem #4322288) and its STR profile corresponded to the putative background. Mitochondrial DNA (mtDNA) was sequenced by Sanger sequencing as previously described, to ensure wild-type genotype. The results are available upon request. NDUFS3 knockout cells, referred as SKOV3^−/−, HCT116^−/− and B16-F10^−/−, were generated by genome editing as previously reported. Briefly, CRISPR/Cas9 system was used to introduce a frameshift mutation in NDUFS3 gene in SKOV3 human cell line and Ndufs3 gene in B16-F10 murine cell line, using exon 2 targeting guide […] and exon 3 targeting guide […], respectively. Instead, zinc finger endonuclease system was used to obtain HCT116 NDUFS3 knockout. Plasmids containing cDNA of NDUFS3-targeted zinc finger endonucleases (Sigma-Aldrich #CKOZFND15186) were purified and transcribed in vitro. The pool of zinc finger endonucleases mRNAs was transfected into 70% confluent HCT116 cells. The resulting heterozygous clones were subjected to a subsequent second transfection with NDUFS3 zinc finger pool and led to the selection of homozygous frameshift NDUFS3 mutants.
as §1, §2

[12] = tested on: SKOV3^−/− cells (NDUFS3 knockout); assay: Proliferation of CI-deficient cells, Incucyte; assay type: cell-based, human
Description: as §6, §1, §2

[13] = tested on: B16-F10^−/− cells (NDUFS3 knockout); assay: Proliferation of CI-deficient cells, Incucyte; assay type: cell-based, murine
Description: as §3, §1, §4

SKOV3 cells = assay: Apoptotic cell death, Incucyte Caspase-3/7 green dye; assay type: cell-based, human; details: 72 h
Procedure: as §7

HCT116 cells = assay: as above; assay type: cell-based, human; details: 72 h
Procedure: as §7

[14] = 1 µM (highest concentration applied)
[15] = B16-F10, figure 4a, read-out: IC50 (residual OCR, concentration-response)
[16] = range over SKOV3, HCT116, B16-F10, read-out: IC50 of mitochondrial respiration (range over cell lines)
[17] = metformin, dose-dependent over the tested concentrations

Cc1cc(-c2nc(-c3ccc(OC(F)(F)F)cc3)no2)nn1Cc1ccnc(N2CCN(C3CC3)CC2)c1 [BAY 87-2243, 1-cyclopropyl-4-(4-[(5-methyl-3-{3-[4-(trifluoromethoxy)phenyl]-1,2,4-oxadiazol-5-yl)-1H-pyrazol-1-yl)methyl]pyridin-2-yl) piperazine]
reduction of cell growth after 72 h treatment [1, 14]: 20%
reduction of cell growth after 72 h treatment (SKOV3 cells (NDUFS3^+/+); [14]): 38%
reduction of cell growth after 72 h treatment [2, 14]: 28%
effect on CI-deficient cancer cell growth [3]: unaffected
effect on cell proliferation at optimized concentrations, NDUFS3^+/+ versus CI-defective counterparts [4]: reduced cell proliferation of NDUFS3^+/+ cells only
apoptosis (percentage of cells) ([5]; tested BAY 87-2243 concentrations): very low percentage of cells
lowest concentration that completely inhibited mitochondrial respiration (abolished OCR) [6]: 1 µM
IC50 ([6]; HCT-116, figure 4a): 0.172 µM
lowest concentration that completely inhibited mitochondrial respiration (abolished OCR) [7]: 1 µM
IC50 ([7]; SK-OV-3, figure 4a): 0.115 µM
concentration required to suppress maximal OCR (abolished OCR) ([8]; B16-F10): 20 µM
IC50 [8, 15]: 7.04 µM
IC50 ([8]; murine B16-F10 cells, read-out: IC50 (mitochondrial respiration)): 7 µM
fold less efficient in murine B16-F10 cells compared to human models ([8]; ratio of IC50, B16-F10 versus human models): 50 fold
IC50 ([9]; human models (SKOV3, HCT116), read-out: IC50 (mitochondrial respiration)): 0.115 to 0.171 µM
IC50 [9, 16]: 0.12 to 7 µM
effect on CI-driven ATP synthesis [10]: strongly inhibit

Nc1ccc2ncnc(NCCc3ccc(Oc4ccccc4)cc3)c2c1 [EVP 4593, N4-[2-(4-phenoxyphenyl)ethyl]-4,6-quinazolinediamine]
decrease in cell proliferation after 72 h ([1]; 2.5–20 µM): 52–74%
decrease in cell proliferation after 72 h (SKOV3 cells (NDUFS3^+/+); 2.5–20 µM): 49–62%
decrease in cell proliferation after 72 h ([2]; 2.5–20 µM): 66–84%
concentration causing reduction of NDUFS3^−/− cell growth ([11]; HCT116 NDUFS3^−/−): 10 to 20 µM
concentration causing reduction of NDUFS3^−/− cell growth ([12]; SKOV3 NDUFS3^−/−): 20 µM
concentration causing reduction of NDUFS3^−/− cell growth ([13]; B16-F10 NDUFS3^−/−): 20 µM
effect on cell proliferation at optimized concentrations, NDUFS3^+/+ versus CI-defective counterparts [4]: reduced cell proliferation of NDUFS3^+/+ cells only
apoptotic cell death (SKOV3 cells; 20 µM): 24.6%
apoptotic cell death (HCT116 cells; 20 µM): 77.6%
apoptotic cell death ([5]; 2.5 µM): modest percentage of dead cells
massive apoptotic cell death ([5]; optimized concentration (100 nM SKOV3 and HCT116, 200 nM B16-F10)): not detected
lowest concentration able to fully curb mitochondrial respiration [6]: 100 nM
IC50 ([6]; HCT-116, figure 4a): 0.013 µM
lowest concentration able to fully curb mitochondrial respiration [7]: 100 nM
IC50 ([7]; SK-OV-3, figure 4a): 0.0111 µM
lowest concentration able to fully curb mitochondrial respiration ([8]; B16-F10): 200 nM
IC50 [8, 15]: 0.0299 µM
concentration range completely suppressing mitochondrial respiration ([9]; in our models (SKOV3, HCT116, B16-F10)): 100 to 200 nM
IC50 [9, 16]: 0.011 to 0.03 µM
effect on CI-driven ATP synthesis [10]: strongly inhibit

Cc1nc(-c2nc(-c3ccc(OC(F)(F)F)cc3)no2)nn1Cc1cccc(N2CCC(S(C)(=O)=O)CC2)c1 [IACS-010759]
effect on cell proliferation at optimized concentrations, NDUFS3^+/+ versus CI-defective counterparts [4]: reduced cell proliferation of NDUFS3^+/+ cells only
lowest concentration that completely inhibited mitochondrial respiration (abolished OCR) [6]: 1 µM
lowest concentration that completely inhibited mitochondrial respiration (abolished OCR) [7]: 1 µM
concentration required to suppress maximal OCR (abolished OCR) ([8]; B16-F10): 5 µM

CN(C)C(=N)NC(=N)N.Cl [metformin, 1,1-dimethylbiguanide hydrochloride]
reduction of cell growth after 72 h [1, 17]: 46–77%
reduction of cell growth after 72 h (SKOV3 cells (NDUFS3^+/+); [17]): 58–90%
reduction of cell growth after 72 h [2, 17]: 24–62%
concentrations at which NDUFS3^−/− cell growth was reduced (CI-independent antiproliferative effect) ([11]; metformin, HCT116^−/−): all the tested concentrations
concentrations at which NDUFS3^−/− cell growth was reduced (CI-independent antiproliferative effect) ([12]; metformin, SKOV3^−/−): all the tested concentrations
concentrations at which NDUFS3^−/− cell proliferation was reduced (CI-independent antiproliferative effect) ([13]; metformin, B16-F10^−/−, only at high concentrations): 10 to 20 mM
apoptotic cell death (portion of the cells) (SKOV3 cells; 2.5 mM): 2.8%
apoptotic cell death (HCT116 cells; 2.5 mM): comparable to the untreated control
IC50 ([6]; HCT-116, pre-incubated 24 h before OCR measurement, figure 4a): 225 µM
concentration abolishing basal OCR ([6]; pre-incubation for 24 h): 2 mM
IC50 ([7]; SK-OV-3, pre-incubated 24 h before OCR measurement, figure 4a): 554 µM
concentration abolishing basal OCR ([7]; pre-incubation for 24 h): 2 mM
IC50 ([8]; B16-F10, pre-incubated 24 h before OCR measurement, figure 4a, read-out: IC50 (residual OCR, concentration-response)): 1340 µM
concentration abolishing basal OCR ([8]; pre-incubation for 24 h, B16-F10): 10 mM
decrease of basal respiration (OCR) ([9]; acute injection, only at the highest concentration (50 mM), independently from the cell model): 25–35%
concentration abolishing maximal respiration ([9]; cells pre-incubated (24 h)): 50 mM
IC50 ([9]; range over SKOV3, HCT116, B16-F10, 24 h pre-incubation, read-out: IC50 of mitochondrial respiration (range over cell lines)): 225 to 1340 µM
